Results on one compound are retold here after PMC10110893, “[…]-derived synthetic cannabinoids inhibit T-type calcium channels with divergent effects on seizures in rodent models of epilepsy” (Frontiers in Physiology, 2023).

Series [1] has as its system Scn1a +/- mouse model of Dravet syndrome. In words: Spontaneous seizures and survival monitoring in Scn1a+/- mice. The class given is in vivo. The method, then: Scn1a ^ +/− mice purchased from The Jackson Laboratory (stock 37107-JAX; Bar Harbour, United States) were maintained as a congenic line on a 129S6/SvEvTac background (129. Scn1a ^+/−). F1 mice were generated by crossing 129. Scn1a ^+/− mice with wild-type C57BL/6J mice (Jackson Laboratory stock no. 000664) and group housed. Scn1a genotype was determined as previously described ([Miller et al., 2014]).
On P18, male and female Scn1a ^ +/− mice were weaned and randomly assigned to treatment groups (untreated or SB2193) with n = 17–19 per group. For spontaneous seizure and survival experiments, SB2193 was administered sub-chronically via supplementation of the compound into chow to avoid stress associated with repeated i.p. injections. Chow was formulated at 5,000 mg/kg SB2193 in chow to provide target brain concentrations of 0.73 μM, with the daily oral dose based on the assumption that each mouse consumes approximately 3 g chow/day. Bodyweight of mice was monitored during the administration period to ensure consumption of chow. Animals in both treatment groups gained weight at an equivalent rate over the chow supplementation period (Supplementary Figure S1).
Continuous video recordings from 00:00 P23 to 24:00 P24 were made using a Samsung SCB-5003 days/night camera equipped with an infrared lens (Seoul, South Korea). The number of spontaneous generalised tonic-clonic seizures (GTCS) occurring over the 48 h recording period was quantified offline by a blinded observer. Statistical comparison was performed in GraphPad Prism using a Mann-Whitney U test as data were non-parametric. Treatment was continued to P30 to monitor survival of mice. Scn1a ^ +/− mice have a high premature mortality rate, with approximately 50% of animals surviving to P30 ([Miller et al., 2014]). We have observed substantial variability in the mortality rate across experimental cohorts which is difficult to explain and likely due to stochastic factors ([Anderson et al., 2020]; [Anderson et al., 2021]; [Anderson et al., 2022]). […]

Series [2] concerns cannabinoid CB1 receptors. Also noted: method as in Kevin et al., 2022. The settings on record: ref Kevin et al., 2022; cited from earlier work.

For the compound `CCCCCn1cc(C(=O)N2CCN(C(=O)OC(C)(C)C)CC2)c2ccccc21` [SB2193], the “survival of mice to P30” value in series [1] (5,000 mg/kg chow orally P18–P30) was “no effect”. In addition, in series [1] (5,000 mg/kg chow orally from P18, 48 h recording P23-24, n = 17–19), the “spontaneous seizure (GTCS) frequency vs control mice” value is on record as “did not decrease”. Moreover, the bodyweight change result in series [1] (SB2193-treated vs untreated chow, P18 to P30, n = 14) is reported as “no effect of treatment”. Further, the “activity at cannabinoid CB1 receptors” value in series [2] is reported as “minimal activity”.
